Numbered stars: 1 amine (or outer) side, 2 acyl side, 3 side chain; on linkers, the order of the positions; unused ones are H or OH. Square brackets hold non-standard residues; d marks the D form. Side chains are listed from the residue outwards. Peptide text beside a SMILES is read from it. * marks the point of attachment. DOTA = O=C(O)CN1CCN(CC(=O)O)CCN(CC(=O)*)CCN(CC(=O)O)CC1; d(γGlu) = O=C(O)[C@@H](CCC(=O)[*:2])N[*:1]; 1Nal = N[C@@H](Cc1cccc2ccccc12)C(=O)O; NMeNle = CCCC[C@H](NC)C(=O)O; PEG4 = NCCOCCOCCOCCOCCC(=O)O

This is an account of results in publication PMC12439480, “Dimeric CCK2R radiotheranostic tracers synergize with mTOR inhibition for enhanced tumor therapy” (Theranostics, 2025).

Data set [1] concerns AR42J tumor-bearing mice. In words: in vivo. More on the design: species or system BALB/c nude mice. The settings on record: mouse, 1 h. As for the experimental part: To complement the imaging studies, biodistribution experiments were performed. AR42J tumor-bearing mice were intravenously injected with 3.7 MBq of [^68Ga]Ga-DOTA-CCK2R-dimer (≈ 120 pmol) or [^68Ga]Ga-DOTA-CCK-66 (≈ 210 pmol) (dissolved in 200 μL of saline; n = 3/group). The mice were sacrificed at 30, 60, and 120 min post-injection, and the tissues of interest were excised, weighed, and analyzed for radioactivity using a γ-counter. For blocking studies, a 400-fold excess of the lead compound was co-administered, and the mice were sacrificed at 1 h post-injection.
All animal studies were approved by the Ethics Committee of Fudan University
Shanghai Cancer Center (No. FUSCC-IACUC- S2023- 0003). Five-week-old female
BALB/c nude mice were purchased from Shanghai SLAC Laboratory Animal
Company. To establish cell-derived xenograft (CDX) models, 1 × 10⁶ AR42J cells
(100 μL) were subcutaneously inoculated into the right shoulder of each mouse. […]

On the set-up of data set [2]: species or system KM mice. The note with it: mouse, in vivo, iv. As for the experimental part:
To evaluate the clearance rates of [^68Ga]Ga-DOTA-CCK2R-dimer and [^68Ga]Ga-DOTA-CCK-66 from the blood, a pharmacokinetic study was conducted in male KM mice (4-6 weeks old, 18-20 g, n = 5/group). Each mouse received 3.7 MBq of radiotracer via tail vein injection, corresponding to approximately 120 pmol of [^68Ga]Ga-DOTA-CCK2R-dimer or 210 pmol of [^68Ga]Ga-DOTA-CCK-66. Blood samples were collected from the tail vein into preweighed capillary tubes at 1, 3, 5, 10, 15, 30, 60, 90, 120, and 150 min post-injection. The radioactivity of the blood samples was measured using a γ-counter, and the percent of injected dose per gram of tissue (%ID/g) was calculated. Additionally, we assessed the in vivo stability of [^177Lu]Lu-DOTA-CCK2R-dimer. Mice were intravenously injected with 7.4 MBq (≈ 240 pmol) of [^177Lu]Lu-DOTA-CCK2R-dimer (dissolved in 200 μL of saline; n = 3/group). Urine samples were collected at 1, 4, and 24 hours post-injection, then diluted, filtered through a 0.22 μm membrane, and analyzed by radio-HPLC.
All animal studies were approved by the Ethics Committee of Fudan University […]
Shanghai Cancer Center (No. FUSCC-IACUC- S2023- 0003). […]
Pharmacokinetics in Normal Mice
F or the pharmacokinetics study, […] male KM mice (4 - 6 weeks old, weighing 18 - 20 g) were administered either [68Ga]Ga-D O TA -CCK2R-dimer or [68Ga]Ga-D O TA -CCK- 66 (3.7 MBq per mouse, n = 5/group) via tail vein injection.
Blood samples were collected from the tail vein using pre-weighed capillary tubes at […]
(§1) Radioactivity levels were measured using a gamma counter, with decay correction applied based on the injection time. The percentage of injected dose per gram of tissue (%ID/g) was calculated for each time point. […]

Data set [3] relates to AR42J tumor-bearing mice. The experiment in a line: In vivo therapeutic study (tumor volume, survival, body weight). More on the design: species or system BALB/c nude mice. From the text:
When the tumor volume reached approximately 100 mm^3, the AR42J tumor-bearing mice were randomly divided into four treatment groups (n = 8/group).
Tumor volumes and body weights were monitored every two days. The following humane endpoints were established as follows: tumor volume exceeding 1500 mm^3, weight loss greater than 15%, or observable signs of pain or distress. Mice meeting one of these criteria were euthanized.

Data set [4] concerns AR42J tumor-bearing mice. The experiment in a line: Toxicity studies (blood count, blood biochemistry, histopathology). The protocol:
On day 12 post-treatment, the tumor tissues were processed and subjected to scRNA-seq and immunohistochemical (IHC) analysis (see Supplementary Methods, Section S4). […] Toxicity studies were conducted when the mice reached one of the predefined endpoints (Supplementary Methods, Section S6). […]
Section S6: Toxicity Studies
Blood samples were collected retro-orbitally using a glass capillary tube when mice reached one of the predefined endpoints. The samples were then centrifuged at 6,000 rpm for 10 minutes (Centrifuge 5417R, Eppendorf SE, Enfield, CT, USA), and the supernatant was transferred into a preventive care profile plus rotor for analysis of RBC, WBC, PLT, ALT, AST, ALP, BUN, and CREA. Sample analysis was performed

The test system of data set [5] is GSTK1. In words: Western blot of GSTK1 expression. The format is cell-based, rat. The settings on record: cultured AR42J cells, 24 h. The protocol: pathway analysis, and Reactome pathway analysis. GO enrichment analysis was conducted using clusterProfiler (v4.0.5). KEGG pathway enrichment was analyzed using clusterProfiler, focusing on pathways relevant to radiotherapy- related detoxification, including glutathione metabolism and cytochrome P450- mediated metabolism of xenobiotics. Reactome pathway analysis was performed using […]
to radiosensitivity regulation. […]
protease and phosphatase inhibitors. Total protein (20 μ g per sample) was separated […]
ABclonal, Cat. No. A5226). After three washes with TBST, membranes were […]
temperature. Protein bands were visualized using an enhanced chemiluminescence detection system (CLINX, ChemiScope 6200).
Section S6: Toxicity Studies […]
mice reached one of the predefined endpoints. The samples were then centrifuged at […]
RBC, WBC, PLT, ALT, AST, ALP, BUN, and CREA. Sample analysis was performed
(In general: Immunoblotting shows a protein as a band on a membrane.)

Details of data set [6]: species or system mice. The settings on record: mouse, in vivo, 24 h. As for the experimental part:
In vitro stability was evaluated by incubating ~37 kBq of each radiotracer in PBS or human serum at 37 °C (n = 3). […] To further assess the in vivo stability of [^177Lu]Lu-DOTA-CCK2R-dimer, mice (n = 3) were intravenously injected with 3.7 MBq of the radiotracer in 200 μL of saline. […] The radioactivity of the blood samples was measured using a γ-counter, and the percent of injected dose per gram of tissue (%ID/g) was calculated. Additionally, we assessed the in vivo stability of [^177Lu]Lu-DOTA-CCK2R-dimer. Mice were intravenously injected with 7.4 MBq (≈ 240 pmol) of [^177Lu]Lu-DOTA-CCK2R-dimer (dissolved in 200 μL of saline; n = 3/group).

Data set [7] has as its system AR42J tumor-bearing mice. In words: Ex vivo biodistribution of 177Lu-labeled compound. The arrangement: species or system BALB/c nude mice. The settings on record: mouse, in vivo. As for the experimental part: To evaluate the biodistribution of [^177Lu]Lu-DOTA-CCK2R-dimer, AR42J tumor-bearing mice received intravenous (i.v.) injections of 3.7 MBq (≈ 120 pmol) of [^177Lu]Lu-DOTA-CCK2R-dimer (dissolved in 200 μL of saline; n = 3/group), and Mice were sacrificed at 1, 4, 24, 48, 72, and 96 h post-injection. The tissues of interest were excised, weighed, and analyzed for radioactivity using a γ-counter.
All animal studies were approved by the Ethics Committee of Fudan University Shanghai Cancer Center (No. FUSCC-IACUC- S2023- 0003). Five-week-old female BALB/c nude mice were purchased from Shanghai SLAC Laboratory Animal
Company. To establish cell-derived xenograft (CDX) models, 1 × 10⁶ AR42J cells (100 μL) were subcutaneously inoculated into the right shoulder of each mouse. […]
as §1

The mark [8] stands for this setting: post-treatment blood biochemistry.

On to `CCCC[C@@H](C(=O)N[C@@H](CC(=O)O)C(=O)N[C@@H](Cc1cccc2ccccc12)C(N)=O)N(C)C(=O)[C@H](Cc1c[nH]c2ccccc12)NC(=O)CCOCCOCCOCCOCCNC(=O)CC[C@@H](NC(=O)CC[C@H](NC(=O)CN1CCN(CC(=O)O)CCN(CC(=O)O)CCN(CC(=O)O)CC1)C(=O)N[C@H](CCC(=O)NCCOCCOCCOCCOCCC(=O)N[C@@H](Cc1c[nH]c2ccccc12)C(=O)N(C)[C@@H](CCCC)C(=O)N[C@@H](CC(=O)O)C(=O)N[C@@H](Cc1cccc2ccccc12)C(N)=O)C(=O)O)C(=O)O` [[68Ga]Ga-DOTA-CCK2R-dimer] [metal not drawn] ({DOTA}-E([d(γGlu)-PEG4-Trp-NMeNle-Asp-1Nal-NH2])[d(γGlu)][PEG4]W[NMeNle]D[1Nal]-NH2), for which, in data set [1], the Bladder uptake came to 0.99 ± 0.77 %ID/g, the Heart uptake amounted to 0.2 ± 0.15 %ID/g, the Kidney uptake is on record as 12.32 ± 8.97 %ID/g and the Liver uptake turned out to be 3.88 ± 2.47 %ID/g. The t1/2α in data set [2] came to 37.8 s.

Compound `CO[C@H]1C[C@@H]2CC[C@@H](C)[C@@](O)(O2)C(=O)C(=O)N2CCCC[C@H]2C(=O)O[C@H]([C@H](C)C[C@@H]2CC[C@@H](OCCO)[C@H](OC)C2)CC(=O)[C@H](C)/C=C(\C)[C@@H](O)[C@@H](OC)C(=O)[C@H](C)C[C@H](C)/C=C/C=C/C=C/1C` [RAD001, everolimus, reference compound] displayed a median survival time in data set [3] (Kaplan-Meier) of 32 days. The average tumor volume in data set [3] (day 10) was 197.63 ± 40.92 mm³. In addition, in data set [4] (post-treatment CBC), the GRA is reported as 23.97 ± 4.05%, the “GRA#” value is 0.19 ± 0.05 109/L, the HCT was 25.73 ± 1.05% and the HGB was 178.57 ± 3.40 g/L. Moreover, in data set [4] (post-treatment CBC), the LYM was 53.9 ± 5.47%, the “LYM#” value is given as 0.41 ± 0.03 109/L, the MCH was 35.33 ± 0.87 pg and the MCHC came to 693.67 ± 15.95 g/L. In data set [4] (post-treatment CBC), the MCV amounted to 51.03 ± 0.57 fL, the MON is 22.13 ± 2.32%, the “MON#” value is 0.17 ± 0.05 109/L and the MPV stood at 13.8 ± 0.35 fL. For the same compound, in data set [4] (post-treatment CBC), the P-LCR stood at 45.87 ± 1.03%, the PCT is on record as 0.12 ± 0.01%, the PDW came out at 32.9 ± 0.3 fL and the PLT is 104.33 ± 2.52 109/L. Besides, in data set [4] (post-treatment CBC), the RBC is reported as 5.05 ± 0.22 1012/L, the RDWCV was found to be 11.23 ± 0.15%, the RDWSD was determined as 23.33 ± 1.10 fL and the WBC was 7.67 ± 1.15 109/L. In data set [4] (setting [8]), this compound came in with an ALP of 150.68 ± 32.99 U/L, an ALT of 43.73 ± 11.08 U/L, an AST of 109.76 ± 13.94 U/L and a UA of 140.92 ± 41.88 µmol/L. Besides, in data set [4] (setting [8]), the UREA came to 3.49 ± 1.30 mmol/L. In addition, the “GSTK1 expression (Western blot)” value in data set [5] is on record as “lower in the mTOR group than in the Veh group”.

As to `CCCC[C@@H](C(=O)N[C@@H](CC(=O)O)C(=O)N[C@@H](Cc1cccc2ccccc12)C(N)=O)N(C)C(=O)[C@H](Cc1c[nH]c2ccccc12)NC(=O)CCOCCOCCOCCOCCNC(=O)CC[C@@H](NC(=O)CC[C@H](NC(=O)CN1CCN(CC(=O)O)CCN(CC(=O)O)CCN(CC(=O)O)CC1)C(=O)N[C@H](CCC(=O)NCCOCCOCCOCCOCCC(=O)N[C@@H](Cc1c[nH]c2ccccc12)C(=O)N(C)[C@@H](CCCC)C(=O)N[C@@H](CC(=O)O)C(=O)N[C@@H](Cc1cccc2ccccc12)C(N)=O)C(=O)O)C(=O)O` [[177Lu]Lu-DOTA-CCK2R-dimer] [metal not drawn] ({DOTA}-E([d(γGlu)-PEG4-Trp-NMeNle-Asp-1Nal-NH2])[d(γGlu)][PEG4]W[NMeNle]D[1Nal]-NH2), the “compound remaining intact in urine (radiochemical purity)” value in data set [6] was “more than 96%”. In data set [4] (mouse, in vivo), this compound gave an ALP of 135.99 ± 24.61 U/L, an ALT of 44.93 ± 6.41 U/L, an AST of 87.94 ± 5.64 U/L and a GRA of 28.7 ± 8.16%. Further, in data set [4] (mouse, in vivo), the “GRA#” value was 0.20 ± 0.07 109/L, the HCT was determined as 19.2 ± 5.20%, the HGB is on record as 151.67 ± 19.64 g/L and the LYM is 52.27 ± 2.74%. Besides, in data set [4] (mouse, in vivo), the “LYM#” value was 0.38 ± 0.14 109/L, the MCH was determined as 41.83 ± 6.37 pg, the MCHC came out at 714 ± 42.04 g/L and the MCV was 51.63 ± 0.81 fL. In data set [4] (mouse, in vivo), the MON came to 19.03 ± 9.18%, the “MON#” value is 0.15 ± 0.13 109/L, the P-LCR is on record as 35.87 ± 5.49% and the PCT was found to be 0.16 ± 0.04%. In addition, in data set [4] (mouse, in vivo), the PDW stood at 28.67 ± 2.04 fL, the PLT is 116 ± 13.08 109/L, the RBC is given as 4.72 ± 0.81 1012/L and the RDWCV was 10.77 ± 0.40%. In data set [4] (mouse, in vivo), the RDWSD was found to be 22.33 ± 1.15 fL, the UA was found to be 126.33 ± 13.85 µmol/L, the UREA is reported as 3.25 ± 0.56 mmol/L and the WBC was 7.0 ± 2.65 109/L. In data set [4] (post-treatment CBC), the MPV came to 12.2 ± 0.61 fL. The “Tumor-to-Muscle ratio (T/M)” value in data set [7] is reported as 90.85.
